Reference: patent publication US11458138B2 (Novartis AG, priority 2017, dated 2022)
pIC50: −log10 of the molar value.

Experiments:
[1] = system: corneal endothelial cell population; assay: Quantitative RT-PCR of expanded corneal endothelial cell population; format: cell-based, human
Description: (2) The cells express one or more of Collagen 8a2, AQP1 (aquaporin 1) and SLC4A11 (Solute Carrier Family 4 Member 11). […] The expression of Collagen 8a2, AQP1 or SLC4A11 may be estimated by standard techniques known in the art, such as for example immunohistochemistry, quantitative RT-PCR or by FACS analysis.
The expression of RPE65 and CD31 may be estimated by standard techniques known in the art, such as for example quantitative RT-PCR, immunohistochemistry or FACS analysis.

[2] = biological target: LATS1 (Homo sapiens (Human), UniProt O95835); assay: Target Identification Assay: inhibition of LATS1 activity (FIG. 33C); format: biochemical; conditions: read-out: IC50 against LATS1
Description: The result further confirmed that the compounds of the invention are potent inhibitors of the LATS kinases.

Sequence of LATS1 (O95835 whole entry): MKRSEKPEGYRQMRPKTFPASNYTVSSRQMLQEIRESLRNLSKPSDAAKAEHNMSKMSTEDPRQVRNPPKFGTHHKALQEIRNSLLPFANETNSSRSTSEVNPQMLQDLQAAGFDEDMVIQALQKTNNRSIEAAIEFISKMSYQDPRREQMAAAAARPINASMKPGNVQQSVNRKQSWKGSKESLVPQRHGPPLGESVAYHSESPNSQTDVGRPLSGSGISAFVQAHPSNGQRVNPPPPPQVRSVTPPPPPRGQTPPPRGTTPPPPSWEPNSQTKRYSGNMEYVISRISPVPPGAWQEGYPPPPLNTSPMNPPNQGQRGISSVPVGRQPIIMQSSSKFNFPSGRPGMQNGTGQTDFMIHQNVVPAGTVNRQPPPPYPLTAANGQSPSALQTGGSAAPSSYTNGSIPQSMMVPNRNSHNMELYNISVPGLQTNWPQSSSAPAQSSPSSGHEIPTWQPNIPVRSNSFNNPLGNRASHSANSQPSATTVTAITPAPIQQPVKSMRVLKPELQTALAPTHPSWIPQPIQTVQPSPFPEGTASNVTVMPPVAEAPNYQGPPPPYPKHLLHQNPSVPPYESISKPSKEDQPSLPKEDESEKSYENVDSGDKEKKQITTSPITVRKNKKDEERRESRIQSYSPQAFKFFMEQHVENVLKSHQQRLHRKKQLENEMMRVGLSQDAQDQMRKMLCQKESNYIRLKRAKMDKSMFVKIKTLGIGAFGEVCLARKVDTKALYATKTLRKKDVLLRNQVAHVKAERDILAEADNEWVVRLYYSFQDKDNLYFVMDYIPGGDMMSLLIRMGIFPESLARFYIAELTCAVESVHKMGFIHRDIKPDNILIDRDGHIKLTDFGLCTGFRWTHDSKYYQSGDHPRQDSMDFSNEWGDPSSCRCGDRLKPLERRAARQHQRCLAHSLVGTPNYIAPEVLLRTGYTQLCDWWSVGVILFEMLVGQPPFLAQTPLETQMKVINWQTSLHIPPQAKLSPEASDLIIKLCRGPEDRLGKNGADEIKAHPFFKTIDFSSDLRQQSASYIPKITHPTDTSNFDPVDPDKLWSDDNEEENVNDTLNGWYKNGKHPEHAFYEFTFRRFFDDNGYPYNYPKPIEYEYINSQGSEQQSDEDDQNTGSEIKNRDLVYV

Compound | expression of Collagen 8a2, AQP1, SLc4A11 by quantitative RT-PCR [1] | expression of RPE65 and CD31 by quantitative RT-PCR [1] | pIC50 [2]
CC(C)(O)CC(C)(C)Nc1nc(-c2ccncc2)nc2cnccc12 [Example 49, 2,4-dimethyl-4-{[2-(pyridin-4-yl)pyrido[3,4-d]pyrimidin-4-yl]amino}pentan-2-ol] | express genes normally expressed by corneal endothelial cells in vivo | do not express markers of other epithelia present in the eye | 
Cc1n[nH]cc1-c1nc(NC2(C)CC2)c2ccncc2n1 [Example 133, 2-(3-methyl-1H-pyrazol-4-yl)-N-(1-methylcyclopropyl)pyrido[3,4-d]pyrimidin-4-amine] |  |  | 8.89
